Results as given in the supplement of paper PMC10307832.

Tests used:
Assay in all cases: relative viability (nuclei count vs DMSO), 5 days (fraction); higher = more cells survive
[1] = compound: CC1=C(N=C(N=C1N)[C@H](CC(=O)N)NC[C@@H](C(=O)N)N)C(=O)N[C@@H]([C@H](C2=CN=CN2)OC3C(C(C(C(O3)CO)O)O)OC4C(C(C(C(O4)CO)O)OC(=O)N)O)C(=O)N[C@H](C)[C@H]([C@H](C)C(=O)N[C@@H]([C@@H](C)O)C(=O)NCCC5=NC(=CS5)C6=NC(=CS6)C(=O)NCCC[S+](C)C)O [Bleomycin] + CC(=O)Nc1cccc(-n2c(=O)n(C3CC3)c(=O)c3c(Nc4ccc(I)cc4F)n(C)c(=O)c(C)c32)c1 [Trametinib] (partner 0.02 µM); details: main component drawn
How it was run: (§1)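 A single step with final 0.05% Triton X-100, 1% formaldehyde and 1 ug/ml Hoechst fixed the cells and stained nuclei 5 days after treatment. Lung cancer cell lines in 1536-well plates had been treated by pin tool the day after seeding with one drug alone or a fixed anchor-drug dose plus five library-drug doses (not always all listed) in √10 steps, and nuclei were counted on 4× images. Relative viability is the ratio of nuclei in treated wells to nuclei in vehicle wells, taken as the median of duplicate plates.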

[2] = compound: CC1=C(N=C(N=C1N)[C@H](CC(=O)N)NC[C@@H](C(=O)N)N)C(=O)N[C@@H]([C@H](C2=CN=CN2)OC3C(C(C(C(O3)CO)O)O)OC4C(C(C(C(O4)CO)O)OC(=O)N)O)C(=O)N[C@H](C)[C@H]([C@H](C)C(=O)N[C@@H]([C@@H](C)O)C(=O)NCCC5=NC(=CS5)C6=NC(=CS6)C(=O)NCCC[S+](C)C)O [Bleomycin] + CS(=O)(=O)N1CCN(Cc2cc3nc(-c4cccc5[nH]ncc45)nc(N4CCOCC4)c3s2)CC1 [Pictilisib] (partner 1 µM); details: main component drawn
How it was run: as §1

[3] = compound: CC1=C(N=C(N=C1N)[C@H](CC(=O)N)NC[C@@H](C(=O)N)N)C(=O)N[C@@H]([C@H](C2=CN=CN2)OC3C(C(C(C(O3)CO)O)O)OC4C(C(C(C(O4)CO)O)OC(=O)N)O)C(=O)N[C@H](C)[C@H]([C@H](C)C(=O)N[C@@H]([C@@H](C)O)C(=O)NCCC5=NC(=CS5)C6=NC(=CS6)C(=O)NCCC[S+](C)C)O [Bleomycin] + NC(=O)Nc1cc(-c2cccc(F)c2)sc1C(=O)N[C@H]1CCCNC1 [AZD7762] (partner 0.2 µM); details: main component drawn
How it was run: as §1

[4] = compound: COc1cc([C@@H]2c3cc4c(cc3[C@@H](O[C@@H]3O[C@@H]5CO[C@@H](C)O[C@H]5[C@H](O)[C@H]3O)[C@H]3COC(=O)[C@H]23)OCO4)cc(OC)c1O [Etoposide] + N=C(N)NC(=N)NCCc1ccccc1 [Phenformin] (partner 250 µM)
How it was run: as §1

| Cell Line | relative viability ([1]; first compound 0.01 µM) | relative viability ([1]; first compound 0.1 µM) | relative viability ([1]; first compound 0.3162 µM) | relative viability ([1]; first compound 1 µM) | relative viability ([2]; first compound 0.01 µM) | relative viability ([2]; first compound 0.03162 µM) | relative viability ([2]; first compound 0.1 µM) | relative viability ([2]; first compound 0.3162 µM) | relative viability ([2]; first compound 1 µM) | relative viability ([3]; first compound 0.01 µM) | relative viability ([3]; first compound 0.1 µM) | relative viability ([3]; first compound 0.3162 µM) | relative viability ([3]; first compound 1 µM) | relative viability ([4]; first compound 0.01 µM) | relative viability ([4]; first compound 0.03162 µM) | relative viability ([4]; first compound 0.1 µM) | relative viability ([4]; first compound 0.3162 µM) | relative viability ([4]; first compound 1 µM) | relative viability ([1]; first compound 0.03162 µM) | relative viability ([3]; first compound 0.03162 µM) |
| --- | --- | --- | --- | --- | --- | --- | --- | --- | --- | --- | --- | --- | --- | --- | --- | --- | --- | --- | --- | --- |
| HCC-827 | 0.495 | 0.502 | 0.273 | 0.209 | 0.921 | 0.787 | 0.916 | 0.512 | 0.399 | 0.195 | 0.199 | 0.148 | 0.167 | 0.413 | 0.412 | 0.338 | 0.315 | 0.156 | – | – |
| LK-2 | 0.474 | 0.449 | 0.263 | 0.254 | 0.517 | 0.489 | 0.437 | 0.287 | 0.278 | 0.26 | 0.218 | 0.134 | 0.116 | 0.563 | 0.641 | 0.368 | 0.319 | 0.172 | 0.389 | 0.271 |
| HCC-366 | 0.219 | 0.147 | 0.0475 | 0.0448 | 0.133 | 0.128 | 0.09 | 0.0658 | 0.0477 | 0.305 | 0.156 | 0.065 | 0.0338 | 0.647 | 0.625 | 0.327 | 0.333 | 0.0669 | 0.144 | 0.231 |
| BEN | 1.03 | 1.05 | 0.863 | 0.849 | 0.573 | 0.57 | 0.54 | 0.389 | 0.435 | 0.735 | 0.66 | 0.534 | 0.606 | 0.249 | 0.266 | – | 0.264 | 0.289 | 0.959 | 0.736 |
| NCI-H2347 | 0.309 | 0.29 | 0.279 | 0.226 | 0.605 | 0.599 | 0.532 | 0.271 | 0.575 | 0.727 | 0.714 | 0.325 | 0.45 | 0.39 | 0.446 | 0.345 | 0.247 | 0.294 | 0.254 | 0.858 |
| NCI-H1395 | 0.753 | 0.714 | 0.482 | 0.404 | 0.579 | 0.6 | 0.476 | 0.686 | 0.489 | 0.371 | 0.352 | 0.392 | 0.324 | 0.464 | 0.415 | 0.473 | 0.441 | 0.425 | 0.822 | 0.401 |
| 201T | 0.697 | 0.673 | 0.598 | 0.555 | 0.686 | 0.59 | 0.622 | 0.634 | 0.512 | 0.487 | 0.438 | 0.422 | 0.334 | 0.45 | 0.51 | 0.381 | 0.368 | 0.322 | 0.731 | 0.543 |
